Laboratory results reported in patent EP2948433B1, “ATGLISTATIN AS LIPASE INHIBITOR” (Technische Universität Graz, priority 2013, dated 2014).

Legend:
murine MGL = biological target: T1, murine MGL (Mus musculus, UniProt O35678); assay: MG hydrolase activity, purified MGL, rac-1-(3)-oleoylglycerol substrate; format: biochemical; conditions: Fig. 2C
T1 construct: made in house; host or cells: E. coli, purified
T1 sequence (O35678 1-303): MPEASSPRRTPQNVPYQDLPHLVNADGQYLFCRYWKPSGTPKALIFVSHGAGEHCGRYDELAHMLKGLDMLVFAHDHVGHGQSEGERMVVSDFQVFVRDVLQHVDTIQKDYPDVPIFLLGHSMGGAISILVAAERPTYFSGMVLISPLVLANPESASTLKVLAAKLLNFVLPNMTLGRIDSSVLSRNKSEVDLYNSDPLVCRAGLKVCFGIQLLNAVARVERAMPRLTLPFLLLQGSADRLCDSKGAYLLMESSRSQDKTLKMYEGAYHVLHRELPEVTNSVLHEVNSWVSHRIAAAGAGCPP
Method: (§1) • Figure 1. Structure of compounds 1 to 3 (reference) and compound 4 (atglistatin) and effect on ATGL activity. For determination of lipase activity, lysates of E. coli overexpressing recombinant strep-tagged ATGL and CGI-58 were incubated with a substrate containing radiolabeled [9,10-3H(N)]-triolein. Subsequently, FA were extracted and quantified by liquid scintillation counting. Lysates of cells expressing empty vector were set as blank. Inhibitors were solubilized in DMSO and added at the indicated concentrations. DMSO alone was used as negative control. (A) Structure and IC50 values of compounds 1-4. (B) Dose-dependent inhibition of ATGL in the presence of compound 3 and 4. […] (C) Lineweaver-Burk plots for kinetic analysis of ATGL inhibition. Experiments were performed at varying concentrations of substrate (0.05 - 3 mM) in presence and absence of compound 4 (Atglistatin). […] Lipase activity of ATGL, HSL, lipoprotein lipase, and pancreatic lipase was determined using triolein as substrate. MGL activity was detected in the presence of rac-(1,3)-monooleoylglycerol as substrate. […] The release of FA (A) and glycerol (B) in the media was determined using commercial kits. […] At the indicated timepoints blood was taken retroorbitally and plasma parameters were measured using commercial kits. […] 8 h after gavage blood was taken retroorbitally and plasma parameters were measured using commercial kits. […]

pancreatic lipase = biological target: T2, pancreatic lipase (Sus scrofa, UniProt P00591); assay: Pancreatic lipase activity, triolein substrate; format: biochemical, porcine; conditions: Fig. 2D
T2 construct: pancreatic lipase (from porcine pancreas, Sigma); purchased Sigma; host or cells: porcine pancreas
T2 sequence (P00591 1-450): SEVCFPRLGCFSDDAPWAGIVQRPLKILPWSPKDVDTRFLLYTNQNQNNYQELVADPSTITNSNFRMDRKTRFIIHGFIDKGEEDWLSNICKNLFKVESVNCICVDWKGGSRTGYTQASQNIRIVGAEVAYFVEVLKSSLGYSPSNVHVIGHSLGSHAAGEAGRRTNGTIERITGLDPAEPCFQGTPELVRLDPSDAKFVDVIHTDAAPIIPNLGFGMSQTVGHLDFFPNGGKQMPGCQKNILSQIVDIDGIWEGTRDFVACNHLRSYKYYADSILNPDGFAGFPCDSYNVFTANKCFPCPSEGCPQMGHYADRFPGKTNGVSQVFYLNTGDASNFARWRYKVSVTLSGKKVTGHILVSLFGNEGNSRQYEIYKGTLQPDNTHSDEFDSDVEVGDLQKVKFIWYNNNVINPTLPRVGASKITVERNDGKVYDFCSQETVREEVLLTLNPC
Method: as §1

3T3-L1 adipocytes = assay: Forskolin-stimulated lipolysis of differentiated 3T3-L1 adipocytes; format: cell-based, mouse; conditions: 10 µM forskolin-stimulated, dose dependent (0-50 µM)
Method: as §1

SMILES: CN(C)C(=O)Nc1cccc(-c2ccc(N(C)C)cc2)c1 [Atglistatin, atglistatin]
- effect on MGL activity (murine MGL): only minor effects
- effect on pancreatic lipase (pancreatic lipase): only minor effects
- inhibition of FA release (3T3-L1 adipocytes): almost complete inhibition
- inhibition of glycerol release (3T3-L1 adipocytes): ~90%
